The target of one test is T1, Adenosine receptor A1 (Homo sapiens, UniProt P30542).
T1 sequence (P30542 whole entry): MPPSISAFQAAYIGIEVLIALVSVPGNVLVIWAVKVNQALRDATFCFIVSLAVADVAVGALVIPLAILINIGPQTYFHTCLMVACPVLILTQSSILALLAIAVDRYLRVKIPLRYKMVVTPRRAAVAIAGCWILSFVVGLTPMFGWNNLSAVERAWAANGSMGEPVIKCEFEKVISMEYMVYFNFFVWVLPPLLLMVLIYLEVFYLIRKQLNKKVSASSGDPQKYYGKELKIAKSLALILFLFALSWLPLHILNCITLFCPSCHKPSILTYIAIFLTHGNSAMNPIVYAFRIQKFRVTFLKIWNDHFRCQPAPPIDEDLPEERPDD

In test [1] the target is T2, Alpha-2B adrenergic receptor (Homo sapiens, UniProt P18089).
T2 sequence (P18089 whole entry): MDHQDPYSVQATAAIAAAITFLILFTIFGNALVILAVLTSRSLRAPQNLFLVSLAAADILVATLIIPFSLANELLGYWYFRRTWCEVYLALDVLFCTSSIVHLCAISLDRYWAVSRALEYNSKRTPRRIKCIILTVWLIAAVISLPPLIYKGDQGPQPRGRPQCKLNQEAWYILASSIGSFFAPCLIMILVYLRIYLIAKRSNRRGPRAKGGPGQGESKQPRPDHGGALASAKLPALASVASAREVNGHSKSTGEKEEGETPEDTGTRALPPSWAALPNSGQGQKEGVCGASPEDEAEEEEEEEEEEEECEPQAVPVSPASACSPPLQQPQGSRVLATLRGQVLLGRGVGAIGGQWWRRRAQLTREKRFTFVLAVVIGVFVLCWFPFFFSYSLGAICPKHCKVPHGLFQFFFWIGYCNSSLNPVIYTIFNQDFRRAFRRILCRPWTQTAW

Test [2] has as its target T3, Alpha-2C adrenergic receptor (Homo sapiens, UniProt P18825).
T3 sequence (P18825 whole entry): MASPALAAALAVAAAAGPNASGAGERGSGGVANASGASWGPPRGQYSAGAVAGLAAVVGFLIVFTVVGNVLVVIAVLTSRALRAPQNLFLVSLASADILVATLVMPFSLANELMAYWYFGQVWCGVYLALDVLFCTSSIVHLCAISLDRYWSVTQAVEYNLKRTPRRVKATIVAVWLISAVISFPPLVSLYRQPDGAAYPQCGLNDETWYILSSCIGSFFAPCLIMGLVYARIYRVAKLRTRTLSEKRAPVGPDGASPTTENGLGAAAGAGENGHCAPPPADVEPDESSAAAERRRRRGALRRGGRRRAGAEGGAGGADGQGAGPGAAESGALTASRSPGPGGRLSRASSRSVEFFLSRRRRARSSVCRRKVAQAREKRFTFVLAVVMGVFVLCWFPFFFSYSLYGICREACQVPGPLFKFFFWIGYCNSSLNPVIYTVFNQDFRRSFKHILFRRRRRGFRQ
It is filed as functional.

In another test the target is Vasopressin V1a receptor (Homo sapiens, UniProt P37288).
Test [3] concerns the target Muscarinic acetylcholine receptor M3 (Homo sapiens, UniProt P20309).
The target of the next test is D(1A) dopamine receptor (Homo sapiens, UniProt P21728). It is filed as functional, cell-based.
Test [4] addresses Growth hormone secretagogue receptor type 1 (Homo sapiens, UniProt Q92847).
Another test has as its target Motilin receptor (Homo sapiens, UniProt O43193).
Test [5] concerns the target T4, Neuropeptide Y receptor type 1 (Homo sapiens, UniProt P25929).
T4 sequence (P25929 whole entry): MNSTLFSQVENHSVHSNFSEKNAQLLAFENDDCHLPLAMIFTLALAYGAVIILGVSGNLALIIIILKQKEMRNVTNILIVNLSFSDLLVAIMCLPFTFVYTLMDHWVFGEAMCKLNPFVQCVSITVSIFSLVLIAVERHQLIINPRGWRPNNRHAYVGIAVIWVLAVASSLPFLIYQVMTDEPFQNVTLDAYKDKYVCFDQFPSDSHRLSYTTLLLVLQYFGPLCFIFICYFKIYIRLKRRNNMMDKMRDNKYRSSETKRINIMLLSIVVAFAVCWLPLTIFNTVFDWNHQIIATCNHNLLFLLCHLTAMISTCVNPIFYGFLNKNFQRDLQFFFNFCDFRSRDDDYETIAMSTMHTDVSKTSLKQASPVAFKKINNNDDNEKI

For test [6], the target named is T5, Prostaglandin G/H synthase 1 (Rattus norvegicus, UniProt Q63921).
T5 sequence (Q63921 whole entry): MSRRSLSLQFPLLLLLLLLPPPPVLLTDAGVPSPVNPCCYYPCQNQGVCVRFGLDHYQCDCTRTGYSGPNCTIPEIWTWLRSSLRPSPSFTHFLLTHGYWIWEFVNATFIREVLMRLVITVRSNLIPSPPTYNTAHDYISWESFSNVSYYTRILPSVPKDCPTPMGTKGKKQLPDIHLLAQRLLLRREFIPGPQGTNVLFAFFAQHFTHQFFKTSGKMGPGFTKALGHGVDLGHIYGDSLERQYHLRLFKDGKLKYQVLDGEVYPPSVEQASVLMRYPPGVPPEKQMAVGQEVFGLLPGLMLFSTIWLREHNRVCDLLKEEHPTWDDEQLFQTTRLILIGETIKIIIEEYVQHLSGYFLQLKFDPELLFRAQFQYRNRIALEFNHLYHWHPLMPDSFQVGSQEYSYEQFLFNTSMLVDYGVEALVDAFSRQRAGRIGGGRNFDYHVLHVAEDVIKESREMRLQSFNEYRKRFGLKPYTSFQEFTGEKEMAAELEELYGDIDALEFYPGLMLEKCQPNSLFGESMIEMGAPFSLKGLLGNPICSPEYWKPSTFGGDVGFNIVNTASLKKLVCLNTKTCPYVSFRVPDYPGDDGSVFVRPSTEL
It is filed as functional.

The target of test [7] is cGMP-inhibited 3',5'-cyclic phosphodiesterase 3A (Homo sapiens, UniProt Q14432). It is filed as functional.

AC50 data for 6 compounds are collected here from ChEMBL document CHEMBL5291721, “A preclinical secondary pharmacology resource illuminates target-adverse drug reaction associations of marketed drugs” (Nat Commun, 2023).
Also: assay procedure not described here.

D(1A) dopamine receptor, sequence (P21728 whole entry): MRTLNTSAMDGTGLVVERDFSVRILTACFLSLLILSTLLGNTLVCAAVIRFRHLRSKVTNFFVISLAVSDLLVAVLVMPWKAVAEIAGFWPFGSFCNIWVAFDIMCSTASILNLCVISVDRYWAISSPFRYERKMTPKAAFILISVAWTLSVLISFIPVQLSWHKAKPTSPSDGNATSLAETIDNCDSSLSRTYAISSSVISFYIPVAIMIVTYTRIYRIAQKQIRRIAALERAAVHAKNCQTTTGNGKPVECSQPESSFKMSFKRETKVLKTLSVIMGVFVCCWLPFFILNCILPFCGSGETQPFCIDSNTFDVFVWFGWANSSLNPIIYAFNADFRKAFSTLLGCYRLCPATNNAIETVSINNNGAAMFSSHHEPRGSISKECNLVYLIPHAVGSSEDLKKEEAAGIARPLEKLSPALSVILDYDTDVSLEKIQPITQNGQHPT
Vasopressin V1a receptor, sequence (P37288 whole entry): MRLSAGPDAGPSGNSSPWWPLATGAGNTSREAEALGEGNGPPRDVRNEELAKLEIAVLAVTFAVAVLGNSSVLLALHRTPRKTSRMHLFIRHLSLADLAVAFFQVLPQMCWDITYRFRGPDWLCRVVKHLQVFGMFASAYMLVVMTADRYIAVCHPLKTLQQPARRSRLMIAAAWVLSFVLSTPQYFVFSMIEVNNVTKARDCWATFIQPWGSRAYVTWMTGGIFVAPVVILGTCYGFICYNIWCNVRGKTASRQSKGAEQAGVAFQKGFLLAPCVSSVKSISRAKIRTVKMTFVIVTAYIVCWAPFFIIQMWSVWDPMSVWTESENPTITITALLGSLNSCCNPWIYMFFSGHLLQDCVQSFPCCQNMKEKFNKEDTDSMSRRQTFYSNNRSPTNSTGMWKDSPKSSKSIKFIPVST
cGMP-inhibited 3',5'-cyclic phosphodiesterase 3A, sequence (Q14432 whole entry): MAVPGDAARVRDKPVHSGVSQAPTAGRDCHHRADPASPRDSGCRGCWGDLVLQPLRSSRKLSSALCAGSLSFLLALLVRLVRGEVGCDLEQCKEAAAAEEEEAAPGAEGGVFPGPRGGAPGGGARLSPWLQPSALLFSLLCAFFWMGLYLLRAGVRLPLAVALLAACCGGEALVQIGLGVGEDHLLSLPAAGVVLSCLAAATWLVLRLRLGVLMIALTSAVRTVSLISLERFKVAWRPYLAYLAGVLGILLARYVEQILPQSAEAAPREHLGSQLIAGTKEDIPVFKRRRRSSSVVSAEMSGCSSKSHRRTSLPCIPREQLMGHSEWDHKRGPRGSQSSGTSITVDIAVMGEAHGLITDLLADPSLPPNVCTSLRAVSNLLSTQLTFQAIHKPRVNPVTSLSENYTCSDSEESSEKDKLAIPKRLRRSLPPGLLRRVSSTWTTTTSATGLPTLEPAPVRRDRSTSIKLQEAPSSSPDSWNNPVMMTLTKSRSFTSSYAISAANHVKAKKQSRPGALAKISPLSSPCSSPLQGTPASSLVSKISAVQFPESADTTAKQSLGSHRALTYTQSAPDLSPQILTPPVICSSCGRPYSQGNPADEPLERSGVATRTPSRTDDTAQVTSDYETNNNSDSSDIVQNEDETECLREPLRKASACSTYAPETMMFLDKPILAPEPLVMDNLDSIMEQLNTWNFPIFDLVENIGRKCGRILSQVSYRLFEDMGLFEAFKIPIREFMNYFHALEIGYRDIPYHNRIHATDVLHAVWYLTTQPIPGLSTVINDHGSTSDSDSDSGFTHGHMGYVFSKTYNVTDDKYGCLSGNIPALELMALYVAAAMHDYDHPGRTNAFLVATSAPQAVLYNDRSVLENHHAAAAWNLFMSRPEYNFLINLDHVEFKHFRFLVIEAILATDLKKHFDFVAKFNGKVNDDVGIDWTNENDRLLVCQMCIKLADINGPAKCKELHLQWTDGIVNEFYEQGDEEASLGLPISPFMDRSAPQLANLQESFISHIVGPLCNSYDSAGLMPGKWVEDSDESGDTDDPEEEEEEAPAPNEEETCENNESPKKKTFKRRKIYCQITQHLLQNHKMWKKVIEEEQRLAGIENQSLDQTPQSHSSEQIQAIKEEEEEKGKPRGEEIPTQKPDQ
Muscarinic acetylcholine receptor M3, sequence (P20309 whole entry): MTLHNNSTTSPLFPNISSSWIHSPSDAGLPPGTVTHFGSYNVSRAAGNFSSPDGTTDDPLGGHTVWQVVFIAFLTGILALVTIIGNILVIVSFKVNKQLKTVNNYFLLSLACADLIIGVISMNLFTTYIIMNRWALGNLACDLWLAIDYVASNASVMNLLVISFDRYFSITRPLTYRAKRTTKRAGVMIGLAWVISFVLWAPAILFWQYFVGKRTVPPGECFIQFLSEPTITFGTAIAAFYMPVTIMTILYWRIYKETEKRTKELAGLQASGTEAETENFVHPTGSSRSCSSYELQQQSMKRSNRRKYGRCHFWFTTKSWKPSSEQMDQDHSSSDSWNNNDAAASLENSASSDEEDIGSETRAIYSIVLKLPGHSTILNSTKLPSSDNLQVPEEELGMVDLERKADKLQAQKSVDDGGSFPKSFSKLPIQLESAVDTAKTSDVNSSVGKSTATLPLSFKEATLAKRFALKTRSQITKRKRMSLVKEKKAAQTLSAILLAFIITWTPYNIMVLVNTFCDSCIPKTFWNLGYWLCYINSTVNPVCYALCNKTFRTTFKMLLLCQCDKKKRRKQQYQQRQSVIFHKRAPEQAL
Growth hormone secretagogue receptor type 1, sequence (Q92847 whole entry): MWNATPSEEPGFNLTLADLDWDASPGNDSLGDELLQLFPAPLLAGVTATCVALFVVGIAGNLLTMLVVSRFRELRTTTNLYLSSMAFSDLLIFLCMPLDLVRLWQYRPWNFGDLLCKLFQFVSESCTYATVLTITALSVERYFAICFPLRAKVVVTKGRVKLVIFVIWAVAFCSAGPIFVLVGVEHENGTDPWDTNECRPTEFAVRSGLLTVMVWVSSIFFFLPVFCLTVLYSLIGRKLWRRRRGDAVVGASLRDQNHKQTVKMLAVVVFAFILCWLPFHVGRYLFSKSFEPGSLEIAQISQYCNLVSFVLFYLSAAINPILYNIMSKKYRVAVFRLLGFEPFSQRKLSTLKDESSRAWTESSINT
Motilin receptor, sequence (O43193 whole entry): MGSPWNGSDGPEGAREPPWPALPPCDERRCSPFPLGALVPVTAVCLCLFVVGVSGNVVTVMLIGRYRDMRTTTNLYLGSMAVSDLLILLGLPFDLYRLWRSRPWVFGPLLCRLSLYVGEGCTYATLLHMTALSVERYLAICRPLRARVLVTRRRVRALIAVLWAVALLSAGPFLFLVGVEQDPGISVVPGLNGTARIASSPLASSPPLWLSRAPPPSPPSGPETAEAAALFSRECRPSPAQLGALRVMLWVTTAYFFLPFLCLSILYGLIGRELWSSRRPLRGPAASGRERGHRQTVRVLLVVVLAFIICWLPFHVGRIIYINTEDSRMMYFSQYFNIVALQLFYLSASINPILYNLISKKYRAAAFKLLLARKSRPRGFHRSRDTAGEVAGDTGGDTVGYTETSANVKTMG

As a reminder, the AC50 is the concentration giving half of the maximal activity seen. As to `CN(C)CCC=C1c2ccccc2C=Cc2ccccc21` [CYCLOBENZAPRINE], the AC50 on Adenosine receptor A1 is greater than 30 µM; in test [1] it was greater than 10 µM; in test [2], 3.9 µM; on Vasopressin V1a receptor it was greater than 30 µM; in [3] it was 0.35 µM; on D(1A) dopamine receptor, greater than 10 µM. For the same compound, the AC50 is greater than 30 µM in test [4]; greater than 10 µM on Motilin receptor; greater than 30 µM in test [5]; greater than 30 µM in test [6]; greater than 30 µM in test [7].
For the compound `COc1ccc(C(=O)Nc2ccccc2CCC2CCCCN2C)cc1` (stereo unspecified) [ENCAINIDE], the half-maximal activity concentration (AC50) is greater than 30 µM on Adenosine receptor A1; greater than 10 µM in test [1]; greater than 10 µM in test [2]; greater than 10 µM on Vasopressin V1a receptor; greater than 10 µM in test [3]; greater than 10 µM at D(1A) dopamine receptor. Moreover, the AC50 in [4] was greater than 30 µM; at Motilin receptor, greater than 10 µM; in test [5], greater than 30 µM; in test [6], greater than 30 µM; in test [7], greater than 30 µM.
`O=[N+]([O-])O[C@@H]1CO[C@H]2[C@@H]1OC[C@@H]2O` [ISOSORBIDE MONONITRATE]: the AC50 on Adenosine receptor A1 was greater than 30 µM; in test [1], greater than 10 µM; in [2], greater than 10 µM; on Vasopressin V1a receptor, greater than 10 µM; in test [3], greater than 10 µM; at D(1A) dopamine receptor it was greater than 10 µM. For the same compound, the AC50 in test [4] was greater than 30 µM; at Motilin receptor, greater than 10 µM; in [5], greater than 30 µM; in [6], greater than 30 µM; in [7], greater than 30 µM.
Regarding `CCCCCNC(=N)N/N=C/c1c[nH]c2ccc(OC)cc12` [TEGASEROD], the concentration at half-maximal activity (AC50) at Adenosine receptor A1 was greater than 30 µM; in test [1], 3.37 µM; in test [2], 0.771 µM; on Vasopressin V1a receptor, 21.3 µM; in test [3] it was greater than 30 µM; at D(1A) dopamine receptor, 0.34 µM. Also, the AC50 is 11.4 µM in test [4]; 16.3 µM at Motilin receptor; 11.4 µM in test [5]; 25 µM in [6]; greater than 30 µM in [7].
`CCOc1ccccc1OCC1CNCCO1` (stereo unspecified) [VILOXAZINE]: the AC50 on Adenosine receptor A1 is greater than 30 µM; in [1], greater than 10 µM; in test [2], greater than 10 µM; at Vasopressin V1a receptor, greater than 10 µM; in [3], greater than 10 µM; at D(1A) dopamine receptor, greater than 10 µM. The AC50 in test [4] was greater than 30 µM; at Motilin receptor, greater than 10 µM; in [5], greater than 30 µM; in [6] it was greater than 30 µM; in test [7], greater than 30 µM.
Consider `CN(C)CCc1c[nH]c2ccc(C[C@H]3COC(=O)N3)cc12` [ZOLMITRIPTAN], for which the concentration at half-maximal activity (AC50) (on Adenosine receptor A1; in test [1]; in test [2]; on Vasopressin V1a receptor; in [3]; on D(1A) dopamine receptor) was greater than 30 µM throughout. Moreover, the AC50 (in test [4]; on Motilin receptor; in test [5]; in test [6]; in test [7]) was greater than 30 µM in each case.
